Drawing on patent US20160299130A1, “Telocinobufagin (TCINO) in the Diagnosis and Pathogenesis of Preeclampsia, Traumatic Brain Injury and Acute Respiratory Distress Syndrome” (priority 2015, published 2016), this text covers preeclampsia, tissue injury and vasoconstrictor action for two compounds.

The test system of assay [1] is animal models of preeclampsia. In words: preeclampsia in animal models. It is filed as in vivo. The source says:
(§1) MBG is elevated in preeclampsia and traumatic brain injury. It has been shown that the administration of the antagonist of MBG, resibufagenin (RBG) is therapeutically effective. […] RBG antagonizes MBG activity and may be an effective treatment for hypertension, ARDS, traumatic brain injury, and preeclampsia.

The test system of assay [2] is rodent brain contusion model. In words: rodent brain contusion model. It is filed as in vivo. The note with it: given 1 hour after the insult.
From the text: as §1

For assay [3] the following is noted: in vitro; cited from earlier work.

Molecules are shown by their SMILES.

For the compound `C[C@]12CC[C@H](O)C[C@H]1CC[C@@H]1[C@@H]2CC[C@]2(C)[C@@H](c3ccc(=O)oc3)C[C@H]3O[C@]132` [RBG, resibufagenin], in assay [1], the preeclampsia result is given as “prevents preeclampsia”. Also, the tissue injury result in assay [2] is on record as “amelioration of tissue injury”. `C[C@]12CC[C@H](O)C[C@@]1(O)CC[C@@H]1[C@@H]2CC[C@]2(C)[C@@H](c3ccc(=O)oc3)C[C@H]3O[C@]132` [MBG, marinobufagenin]: the vasoconstrictor action entry in assay [3] is “acts in vitro as a vasoconstrictor”.
